How the values were obtained:
[1] = target: T1, H274Y neuraminidase mutant from A/WSN/1933 (H1N1) (Influenza A virus, UniProt P03470, H259Y); assay: biochemical; design: species or system Influenza virus A/WSN/1933 (H1N1) H274Y mutant
[2] = target: T1, H274Y neuraminidase mutant from A/WSN/1933 (H1N1); assay: cell-based; design: species or system Influenza virus A/WSN/1933 (H1N1) H274Y mutant

Structure (SMILES)	IC50 [1] [nM]	EC50 [2] [nM]
CC(=O)N[C@H]1[C@H]([C@H](O)[C@H](O)CO)OC(P(=O)(O)O)=C[C@@H]1N [1a, (5-Acetamido-4-amino-6-(1,2,3-hydroxy)propyl-4,5,6-trihydropyran-2-yl) phosphonic acid]	0.5	27
CC(=O)N[C@H]1[C@H]([C@H](O)[C@H](O)CO)OC(P(=O)(O)O)=C[C@@H]1NC(=N)N [1b, (5-Acetamido-4-guanidino-6-(1,2,3-hydroxy)propyl-4,5,6-trihydropyran-2-yl) phosphonic acid]	0.25	26
